The record followed here is paper PMC8116058, “De novo macrocyclic peptides dissect energy coupling of a heterodimeric ABC transporter by multimode allosteric inhibition” (eLife, 2021).

Molecules are shown by their SMILES. Positions of bridges follow the written chain, without caps; N, C: chain ends. Non-standard residues stand in square brackets, D forms with d. Residues, ends and D or L forms follow the SMILES beside them. *: point of attachment. 5FAM = O=C1OC2(c3ccc(O)cc3Oc3cc(O)ccc32)c2ccc(C(=O)*)cc21; βAla = NCCC(=O)O

The subject of the experiment is TmrA^EQB. Description: Nucleotide occlusion, catalytically reduced variant. It is filed as biochemical, Thermus thermophilus. The conditions noted are these: CP^F 4 µM; 5 min 45°C. The procedure:
Figure 5. […] (A, B) CP6^F (A) or CP13^F (B, 50 nM each) were incubated with increasing concentrations of detergent-solubilized inward-facing TmrAB (in the absence of Mg-ATP) or outward-facing TmrA^EQB, which was trapped with Mg-ATP (1 mM) for 5 min at 45°C as described ([Hofmann et al., 2019]; [Stefan et al., 2020]). Immediately after, the fluorescence anisotropy was assayed at λex/em = 485/520 nm. The difference in fluorescence polarization was normalized to free and fully bound CP^F. Data were fitted by a one-site binding model. […] TmrAB (2 µM each) were mixed with CP^Fs (4 µM), ATP (1 mM, traced with [α^32P]-ATP), and MgCl2 (5 mM) for 5 min at 4°C or 45°C. Cold ATP (10 mM) was added, and freely exchangeable nucleotides were removed by rapid gel filtration. Occluded nucleotides were analyzed by thin layer chromatography and autoradiography. Representative radiograms for independent triplicates are shown. (D) Stably occluded nucleotides, [α^32P]-ATP and [α^32P]-ADP, were quantified by autoradiography. Data were normalized to the vanadate-trapped state. In (A, B, D), mean values ± SD (n = 3) are shown. Figure 5—source data 1. Source Data for Figure 5. Figure 5—figure supplement 1. […] (A) CP^Fs (50 nM each) were incubated with increasing concentrations of detergent-solubilized IF TmrAB in the inward-facing (IF) conformation (absence of Mg-ATP) or TmrA^EQB populated in the outward-facing (OF) conformation, which was trapped in the OF conformation by Mg-ATP (1 mM) after 5 min incubation at 45°C. The difference in fluorescence polarization was normalized to unbound (0%) and 100% bound CP^F. Data were fitted by a one-site binding model. Fluorescence anisotropy was recorded at λex/em = 485/520 nm. […] TmrA^EQB (2 µM) were incubated in the absence and presence of CP^Fs (4 µM each), ATP (1 mM, traced with [α^32P]-ATP), and MgCl2 (5 mM) for 5 min at 4°C or 45°C. Cold ATP (10 mM) was added, and free nucleotides were removed by rapid gel filtration. Occluded nucleotides were analyzed by thin layer chromatography and autoradiography. Representative radiograms for independent triplicates are shown. […] Figure 5—figure supplement 1—source data 1.
We also examined the impact of CP^Fs on the IF-to-OF transition of wild-type TmrAB induced by ATP binding through nucleotide occlusion (stable trapping) as the readout. We induced the IF-to-OF switch with radiotraced [α^32P]-ATP for 5 min at 45°C in the presence and absence of CPs and removed unbound nucleotides by rapid gel filtration. Subsequently, the occluded nucleotides were identified and quantified by thin layer chromatography and autoradiography (Figure 5C, D).
Detergent-solubilized TmrAB (2 µM) were incubated with ATP (1 mM) traced with [α^32P]-ATP (Hartmann Analytic), MgCl2 (5 mM), CP^Fs (4 µM), or orthovanadate (1 mM) for 5 min at 45°C. […]

With `CC(C)C[C@@H]1NC(=O)[C@H](Cc2ccccc2)NC(=O)CNC(=O)[C@H](CO)NC(=O)[C@H](Cc2ccccc2)NC(=O)[C@H](CC(=O)O)NC(=O)[C@@H]2CCCN2C(=O)[C@H]([C@@H](C)O)NC(=O)[C@@H](Cc2ccc(O)cc2)NC(=O)CSC[C@@H](C(=O)NCC(=O)N[C@@H](CO)C(=O)NCCC(=O)NCCC(=O)N[C@@H](CCCNC(=N)N)C(=O)N[C@@H](CCCCNC(=O)c2ccc3c(c2)C(=O)OC32c3ccc(O)cc3Oc3cc(O)ccc32)C(N)=O)NC(=O)[C@H](C)NC(=O)[C@H](CC(N)=O)NC(=O)[C@H](CCCNC(=N)N)NC(=O)[C@H](CC(C)C)NC(=O)[C@H](Cc2ccccc2)NC(=O)[C@H](C)NC1=O` [CP12] ({CH2CO}-[dY]TPDFSGFLAFLRNACGS[βAla][βAla]RK(5FAM)-NH2; thioether N-16), the “Effect on ATP occlusion, TmrA^EQB” value is listed as “inhibited ATP occlusion”.

In the case of `CC[C@H](C)[C@@H]1NC(=O)[C@H]([C@@H](C)O)NC(=O)[C@H](CC(C)C)NC(=O)[C@H](Cc2c[nH]c3ccccc23)NC(=O)[C@H](Cc2ccccc2)NC(=O)[C@H](CC(N)=O)NC(=O)[C@H](CCC(=O)O)NC(=O)[C@H](CC(C)C)NC(=O)[C@H](CS)NC(=O)[C@H](Cc2c[nH]cn2)NC(=O)[C@H](CO)NC(=O)[C@@H](Cc2ccc(O)cc2)NC(=O)CSC[C@@H](C(=O)NCC(=O)N[C@@H](CO)C(=O)NCCC(=O)NCCC(=O)N[C@@H](CCCNC(=N)N)C(=O)N[C@@H](CCCCNC(=O)c2ccc3c(c2)C(=O)OC32c3ccc(O)cc3Oc3cc(O)ccc32)C(N)=O)NC(=O)[C@H](CC(C)C)NC1=O` [CP6] ({CH2CO}-[dY]SHCLENFWLTILCGS[βAla][βAla]RK(5FAM)-NH2; thioether N-14), the “Effect on ATP occlusion, TmrA^EQB” value is recorded as “inhibited ATP occlusion”. The same measure for `CC(C)[C@@H]1NC(=O)[C@H](Cc2ccccc2)NC(=O)[C@@H]2CCCN2C(=O)[C@H](CC(N)=O)NC(=O)[C@H](Cc2c[nH]c3ccccc23)NC(=O)[C@H](C(C)C)NC(=O)[C@H](Cc2ccc(O)cc2)NC(=O)[C@H](Cc2ccccc2)NC(=O)[C@@H](Cc2ccc(O)cc2)NC(=O)CSC[C@@H](C(=O)NCC(=O)N[C@@H](CO)C(=O)NCCC(=O)NCCC(=O)N[C@@H](CCCNC(=N)N)C(=O)N[C@@H](CCCCNC(=O)c2ccc3c(c2)C(=O)OC32c3ccc(O)cc3Oc3cc(O)ccc32)C(N)=O)NC(=O)[C@H](CCCCN)NC(=O)[C@H](Cc2ccccc2)NC1=O` [CP14] ({CH2CO}-[dY]FYVWNPFVFKCGS[βAla][βAla]RK(5FAM)-NH2; thioether N-12; C-terminus assumed): “ATP is occluded in the presence or absence”; for `CC[C@H](C)[C@@H]1NC(=O)[C@H](Cc2c[nH]c3ccccc23)NC(=O)[C@H](CC(N)=O)NC(=O)[C@H](C)NC(=O)[C@H](CO)NC(=O)[C@@H]2CCCN2C(=O)[C@H](CC(=O)O)NC(=O)[C@@H](Cc2ccc(O)cc2)NC(=O)CSC[C@@H](C(=O)NCC(=O)N[C@@H](CO)C(=O)NCCC(=O)NCCC(=O)N[C@@H](CCCNC(=N)N)C(=O)N[C@@H](CCCCNC(=O)c2ccc3c(c2)C(=O)OC32c3ccc(O)cc3Oc3cc(O)ccc32)C(N)=O)NC(=O)[C@H]([C@@H](C)O)NC(=O)[C@H](CC(C)C)NC(=O)[C@H](CC(C)C)NC(=O)[C@H](C(C)C)NC(=O)[C@H](CC(C)C)NC1=O` [CP13] ({CH2CO}-[dY]DPSANWILVLLTCGS[βAla][βAla]RK(5FAM)-NH2; thioether N-14; C-terminus assumed): “ATP is occluded in the presence or absence”.
